In patent US12178878B2, “Amyloid peptide scaffolds coordinate with Alzheimer's disease drugs” (The University of Massachusetts, priority 2018, dated 2024):
Read-outs that look alike come from different tables or passages of the source.

How the values were obtained:
Assay type in all cases: binding
[1] = system: […] (SEQ ID NO: 3) amyloid peptide; test: Amyloid peptide/inhibitor coordination in dilute solution (1 mg/mL), drug captured after pellet washings; conditions: for AD compound captured, Wash 1 / AD compound captured, Wash 2 / AD compound captured, Wash 3: 150 μM inhibitor loaded; for AD compound captured, Wash 1: 1st pellet wash; for AD compound captured, Wash 2: 2nd pellet wash; for AD compound captured, Wash 3: 3rd pellet wash; for fraction of the 150 μM loaded drug incorporated into the peptide: UV-Vis, first wash
Description: Amyloid Peptide/Inhibitor Coordination Studies in Dilute Solutions. […] Subsequently, 1 mL of DI water was added to wash the pellet (followed by vortexing until obtaining a homogenous dispersion) in order to remove any unbound inhibitor. The samples were then centrifuged again at the same conditions so as to pelletize the amyloid materials, and the supernatant was decanted. Another 1 mL of DI water was then added into the pellet, the mixture was vortexed, and the physically bound inhibitor into the dilute amyloid peptide dispersions was quantified by UV-Vis between 200-600 nm and MS. This step is denoted as wash 1 in our study. Two additional pellet purification cycles were realized with replacement of the decanted volume each time with 1 mL of fresh DI water (denoted as wash 2 and wash 3 respectively). The inhibitor-containing peptides amyloids were normalized at 400 nm over the respective no inhibitor-containing amyloid peptides at the specific washing step, and the measured inhibitor peak values (at 315 nm and 323 nm) were subtracted from that of the amyloid peptide carriers at the same wavelength and concentration. The amount of inhibitors coordinated with the amyloid peptide carriers was quantified based on a calibration curve by both UV-Vis and MS.
The peak at 315 nm was selected for inhibitor quantification due the absence of peaks at that range for both peptides. […] However, the peak at 315 nm was selected for inhibitor quantification, and the following equation was used for both peptides: A315=A315 ([…]/Donepezil)−A315 ([…])
The peak at 323 nm was used for inhibitor quantification due the absence of peaks at that range for both peptides.

[2] = system: […] (SEQ ID NO: 3) amyloid peptide; test: Coordination at higher peptide concentration (amyloid gel, 5 mg/mL), inhibitor capturing; conditions: for capturing efficiency: relative to 2nd pellet wash, UV-Vis; for AD compound captured, Wash 1 / AD compound captured, Wash 2 / AD compound captured, Wash 3: 1000 μM inhibitor solution added; for AD compound captured, Wash 1: 1st pellet wash; for AD compound captured, Wash 2: 2nd pellet wash; for AD compound captured, Wash 3: 3rd pellet wash
Description: Amyloid Fibrils Preparation and Characterization. For the formation of fibrils, the amyloid peptides were dispersed in DI water at a 10 mg/ml, vortexed, heated at 60° C. for 30 sec, and sonicated for 15 mins (this cycle was repeated 10 times overall), and finally left overnight at room temperature to form a hydrogel. […] That was confirmed with Field Emission Scanning Electron Microscopy (FESEM) and Congo Red staining (CR).
Coordination Studies at Higher Peptide Concentrations and Inhibitor Capturing. […] (SEQ ID NO: 4) or […] (SEQ ID NO: 3) amyloid peptide gels (10 mg/mL, 1 mL volume) and was left to physically complex under stirring overnight (the final peptide concentration was diluted to 5 mg/mL). A control using 1 mL of 0.1 M PBS (no inhibitor) was also prepared. The complexed amyloid/inhibitor materials were then transferred to 5 mL conical Eppendorf tubes, and centrifuged for 15 mins at 4,400 rpm (14° C.). The supernatant was decanted, and 2 mL of DI water were subsequently added to wash the pellet (followed by vortexing until obtaining a homogenous dispersion) in order to remove any unbound inhibitor. The samples were then centrifuged again at the same conditions so as to pelletize the amyloid materials, and the supernatant was decanted. Another 2 mL of DI water were then added into the pellet, the mixture was vortexed, and the physically bound inhibitor into the amyloid peptides was quantified by UV-Vis between 200-600 nm and MS. This step is denoted as wash 1 in our study. Two additional pellet purification cycles were realized with replacement of the decanted volume each time with 2 mL of fresh DI water (denoted as wash 2 and wash 3 respectively). The inhibitor-containing amyloid peptides were normalized at 400 nm over the respective no inhibitor-containing ones at the specific washing step.

[3] = system: […] (SEQ ID NO: 4) amyloid peptide; conditions: for capturing efficiency: relative to 2nd pellet wash, UV-Vis; for AD compound captured, Wash 1 / AD compound captured, Wash 2 / AD compound captured, Wash 3: 1000 μM inhibitor solution added; for AD compound captured, Wash 1: 1st pellet wash; for AD compound captured, Wash 2: 2nd pellet wash; for AD compound captured, Wash 2 / AD compound captured, Wash 3: room temperature; for AD compound captured, Wash 3: 3rd pellet wash
Description: Amyloid Fibrils Preparation and Characterization. For the formation of fibrils, the amyloid peptides were dispersed in DI water at a 10 mg/ml, vortexed, heated at 60° C. for 30 sec, and sonicated for 15 mins (this cycle was repeated 10 times overall), and finally left overnight at room temperature to form a hydrogel.
A control using 1 mL of 0.1 M PBS (no inhibitor) was also prepared. The complexed amyloid/inhibitor materials were then transferred to 5 mL conical Eppendorf tubes, and centrifuged for 15 mins at 4,400 rpm (14° C.). The supernatant was decanted, and 2 mL of DI water were subsequently added to wash the pellet (followed by vortexing until obtaining a homogenous dispersion) in order to remove any unbound inhibitor. The samples were then centrifuged again at the same conditions so as to pelletize the amyloid materials, and the supernatant was decanted. Another 2 mL of DI water were then added into the pellet, the mixture was vortexed, and the physically bound inhibitor into the amyloid peptides was quantified by UV-Vis between 200-600 nm and MS. This step is denoted as wash 1 in our study. Two additional pellet purification cycles were realized with replacement of the decanted volume each time with 2 mL of fresh DI water (denoted as wash 2 and wash 3 respectively). The inhibitor-containing amyloid peptides were normalized at 400 nm over the respective no inhibitor-containing ones at the specific washing step.

[4] = FYTGAIIGNYF gel 5 mg/mL, by UV-Vis
[5] = YFTGAIIGNFY gel 5 mg/mL, by UV-Vis

**Q.** Nc1c2c(nc3ccccc13)CCCC2 [tacrine] was tested. Which “AD compound captured, Wash 1” value ([1]; […] 1 mg/mL, by MS) did it give?
**A.** 29 ± 4 µM

**Q.** What about the “AD compound captured, Wash 2” value ([1]; […] 1 mg/mL, by MS) of the same compound?
**A.** 24 ± 8 µM

**Q.** And the “AD compound captured, Wash 3” value ([1]; […] 1 mg/mL, by MS)?
**A.** 23 ± 6 µM

**Q.** And the “AD compound captured, Wash 2” value ([1]; […] 1 mg/mL, by UV-Vis)?
**A.** 17 ± 4 µM

**Q.** And the “AD compound captured, Wash 3” value ([1]; […] 1 mg/mL, by UV-Vis)?
**A.** 13 ± 3 µM

**Q.** And the “fraction of the 150 μM loaded drug incorporated into the peptide” value ([1]; […] 1 mg/mL)?
**A.** approximately 1/7

**Q.** And the capturing efficiency ([2]; […] 5 mg/mL)?
**A.** approximately 8%

**Q.** What about the “AD compound captured, Wash 1” value ([2]; […] gel 5 mg/mL, by MS) of the same compound?
**A.** 114 ± 6 µM

**Q.** And the “AD compound captured, Wash 2” value ([2]; […] gel 5 mg/mL, by MS)?
**A.** 102 ± 2 µM

**Q.** And the “AD compound captured, Wash 3” value ([2]; […] gel 5 mg/mL, by MS)?
**A.** 94 ± 10 µM

**Q.** What about the “AD compound captured, Wash 1” value ([2]; […] gel 5 mg/mL, by UV-Vis) of the same compound?
**A.** 104 ± 16 µM

**Q.** And the “AD compound captured, Wash 2” value ([2]; […] gel 5 mg/mL, by UV-Vis)?
**A.** 82 ± 9 µM

**Q.** What about the “AD compound captured, Wash 3” value ([2]; […] gel 5 mg/mL, by UV-Vis) of the same compound?
**A.** 72 ± 10 µM

**Q.** What about the capturing efficiency ([3]; […] 5 mg/mL) of the same compound?
**A.** approximately 8%

**Q.** And the “AD compound captured, Wash 1” value ([3]; […] gel 5 mg/mL, by MS)?
**A.** 98 ± 9 µM

**Q.** And the “AD compound captured, Wash 2” value ([3]; […] gel 5 mg/mL, by MS)?
**A.** 75 ± 4 µM

**Q.** What about the “AD compound captured, Wash 3” value ([3]; […] gel 5 mg/mL, by MS) of the same compound?
**A.** 63 ± 8 µM

**Q.** What about the “AD compound captured, Wash 1” value ([3]; […] gel 5 mg/mL, by UV-Vis) of the same compound?
**A.** 90 ± 4 µM

**Q.** What about the “AD compound captured, Wash 2” value ([3]; […] gel 5 mg/mL, by UV-Vis) of the same compound?
**A.** 80 ± 5 µM

**Q.** What about the “AD compound captured, Wash 3” value ([3]; […] gel 5 mg/mL, by UV-Vis) of the same compound?
**A.** 73 ± 5 µM

**Q.** With COc1cc2c(cc1OC)C(=O)C(CC1CCN(Cc3ccccc3)CC1)C2 (stereo not drawn) [donepezil] as the compound, how does the “AD compound captured, Wash 1” value ([1]; FYTGAIIGNYF 1 mg/mL, by MS) read?
**A.** 51 ± 3 µM

**Q.** And the “AD compound captured, Wash 2” value ([1]; FYTGAIIGNYF 1 mg/mL, by MS)?
**A.** 47 ± 0 µM

**Q.** And the “AD compound captured, Wash 3” value ([1]; FYTGAIIGNYF 1 mg/mL, by MS)?
**A.** 43 ± 4 µM

**Q.** What about the “AD compound captured, Wash 1” value ([1]; FYTGAIIGNYF 1 mg/mL, by UV-Vis) of the same compound?
**A.** 33 µM

**Q.** What about the “AD compound captured, Wash 1” value ([1]; FYTGAIIGNYF 1 mg/mL, by UV-Vis, listed as Donepezil) of the same compound?
**A.** 33 ± 4 µM

**Q.** And the “AD compound captured, Wash 2” value ([1]; FYTGAIIGNYF 1 mg/mL, by UV-Vis)?
**A.** 28 ± 5 µM

**Q.** What about the “AD compound captured, Wash 3” value ([1]; FYTGAIIGNYF 1 mg/mL, by UV-Vis) of the same compound?
**A.** 20 ± 5 µM

**Q.** And the “fraction of the 150 μM loaded drug incorporated into the peptide” value ([1]; FYTGAIIGNYF 1 mg/mL)?
**A.** approximately ⅕

**Q.** And the capturing efficiency ([2]; FYTGAIIGNYF 5 mg/mL)?
**A.** 17%

**Q.** And the “AD compound captured, Wash 1” value ([2]; FYTGAIIGNYF gel 5 mg/mL, by MS)?
**A.** 163 ± 4 µM

**Q.** What about the “AD compound captured, Wash 2” value ([2]; FYTGAIIGNYF gel 5 mg/mL, by MS) of the same compound?
**A.** 151 ± 1 µM

**Q.** What about the “AD compound captured, Wash 3” value ([2]; FYTGAIIGNYF gel 5 mg/mL, by MS) of the same compound?
**A.** 148 ± 3 µM

**Q.** And the “AD compound captured, Wash 1” value [2, 4]?
**A.** 187 ± 19 µM

**Q.** What about the “AD compound captured, Wash 2” value [2, 4] of the same compound?
**A.** 173 ± 33 µM

**Q.** And the “AD compound captured, Wash 3” value [2, 4]?
**A.** 160 ± 33 µM

**Q.** And the capturing efficiency ([3]; YFTGAIIGNFY 5 mg/mL)?
**A.** 14%

**Q.** And the “AD compound captured, Wash 1” value ([3]; YFTGAIIGNFY gel 5 mg/mL, by MS)?
**A.** 154 ± 7 µM

**Q.** What about the “AD compound captured, Wash 2” value ([3]; YFTGAIIGNFY gel 5 mg/mL, by MS) of the same compound?
**A.** 141 ± 10 µM

**Q.** What about the “AD compound captured, Wash 3” value ([3]; YFTGAIIGNFY gel 5 mg/mL, by MS) of the same compound?
**A.** 129 ± 24 µM

**Q.** And the “AD compound captured, Wash 1” value [3, 5]?
**A.** 154 ± 11 µM

**Q.** And the “AD compound captured, Wash 2” value [3, 5]?
**A.** 135 ± 8 µM

**Q.** What about the “AD compound captured, Wash 3” value [3, 5] of the same compound?
**A.** 117 ± 5 µM
